This is an account of results in patent US20210220355A1, “ANTITUMOR AGENT FOR ACUTE MYELOID LEUKEMIA” (FUJIFILM Corporation, priority 2018, published 2021).

Molecules are shown by their SMILES.

One data set concerns acute myeloid leukemia. Put plainly: BID administration test in a patient with acute myeloid leukemia (bone marrow examination). The data set is classed as in vivo, human. The conditions noted are these: one AML patient, 75 mg BID before a meal, day 29 of administration; 55% before administration. Here is the method:
A patient with acute myeloid leukemia is subjected to the BID administration of Compound A of 25 to 225 mg per administration before having a meal two times a day. A preferred effect (for example, a decrease in the proportion of blast cells in the bone marrow, or a curing effect equal to or higher than PR) is confirmed. The specific doses per administration are 50 mg, 75 mg, 100 mg, or 150 mg. Patients have received chemotherapy with cytarabine, daunorubicin, idarubicin, and the like as preliminary curing, and some patients have not reached CR, CRi, CRp, or PR by preliminary curing. The curing effect is determined by the following criteria. The bone marrow puncture sample is evaluated and determined according to the following criteria. Complete Response (CR): a state in which […], and the neutrophil count and the platelet count are respectively 1,000 counts/μL or more and 100,000 counts/μL or more. Complete Response with incomplete platelet recovery ([…]): a state in which myeloblasts are 5% or less and the neutrophil count is 1,000 counts/μL or more, but the platelet count is 100,000 counts/μL or less. Complete Response with incomplete hematological recovery (CRi): a state in which myeloblasts are 5% or less and there is no blood transfusion dependency, but the neutrophil count is 1,000 counts/μL or less. […]

In another data set the test system is FLT3 phosphorylation. The data set is described as follows: plasma inhibitory activity (PIA) test on patient plasma samples. The class given is cell-based, human. How it is done:
For 7 patients (patients 1 to 7) who were repeatedly administered with 10 mg of Compound A1 one time a day or 20 mg one time a day in a clinical test involving patients with acute myeloid leukemia, in-plasma concentrations of Compound A1 were measured before administration and after 4 hours after the administration on day 1, day 8, day 15, and day 22 of the first cycle (one cycle is 28 days) and on day 1 of the second cycle, and on the end day of the administration of Compound A1. In addition, a plasma inhibitory activity (PIA) test (Blood, 2006, Vol. 108, p 3477 to 3483) was carried out using plasma samples from the same patients at the same time points. A graph showing a correlation between the in-plasma concentrations and the PIA test results is shown FIG. 1. In FIG. 1, open circles, open rectangles, open triangles, filled circles, filled triangles, filled rectangles, and cross symbols indicate the results of patients 1 to 7, respectively.

Data set [1] deals with FLT3-ITD-expressing 32D cell. Put plainly: inhibitory effect on proliferation of mutant FLT3-expressing 32D cell (intracellular ATP level). The data set is classed as cell-based. The conditions noted are these: 72 h, Mutation type FLT3-ITD, day 3, ATP level, read-out: Effect determination (IC50 value class), proliferation. Here is the method:
(§1) 32D cell line expressing FLT3 gene mutations (FLT3-ITD+D698N, +N676T) found according to the random mutagenesis analysis method was cultured for a predetermined period of time (setting: 37° C. and 5% CO2, steam saturated), and then the cells were plated on a 384-well plate at a cell concentration of 299 cells/well. The random mutagenesis analysis method was carried out according to the following reference document.
(§2) Each of the test substances was dissolved in dimethyl sulfoxide (DMSO) to prepare a DMSO solution containing 20 mmol/L of the test substance. After serially diluting with DMSO and further diluting with a medium containing 10% serum, each of the test substance solutions having a concentration 10 times the final treatment concentration was prepared. […] In addition, a group (a positive control group) in which only DMSO containing no test substance was added to a well in which cells were plated and a group (a negative control group) in which only DMSO containing no test substance was added to a well in which only the medium was added were prepared. On day 3 after adding the test substance solution, the intracellular ATP level was measured with “Cell” ATP Assay reagent Ver. 2 (manufactured by TOYO B-Net Co., Ltd.) to evaluate cell viability.
(§3) The suppression rate was determined by assuming that the amount of luminescence signal in the negative control group corresponded to the suppression of cell viability by 100% and the amount of luminescence signal in the positive control group corresponded to the suppression of cell viability by 0%. […] 3 (manufactured by ITOCHU Techno-Solutions Corporation).

The test system of data set [2] is FLT3-ITD+N676T-expressing 32D cell. The data set is described as above. The conditions noted are these: for IC50: 32D, 72 h, Mutation type FLT3-ITD + N676T, day 3, ATP level, read-out: Effect determination (IC50 value class), proliferation. The class given is cell-based. Here is the method:
as §1, §2, §3

The subject of data set [3] is FLT3-ITD+D698N-expressing 32D cell. The description is as above. The data set is classed as cell-based. The conditions noted are these: for IC50: 32D, 72 h, Mutation type FLT3-ITD + D698N, day 3, ATP level, read-out: Effect determination (IC50 value class), proliferation. How it is done:
as §1, §2, §3

The subject of data set [4] is patients with acute myeloid leukemia. The data set is described as follows: clinical test, repeated QD administration to patients with acute myeloid leukemia (side effects). The class given is in vivo, human. To be noted: AML patients, 10 mg or 20 mg one time a day.

`CCCNc1nc(Nc2ccc(C#N)cc2)ncc1C#CCCCNC(=O)[C@H](C)N(C)C(=O)/C=C/CN(C)C` [Compound A1, (S,E)-N-(1-((5-(2-((4-cyanophenyl)amino)-4-(propylamino)pyrimidin-5-yl)-4-pentyn-1-yl)amino)-1-oxopropan-2-yl)-4-(dimethylamino)-N-methyl-2-butenamide]: the “proportion of blast cells in the bone marrow” value in the data set with acute myeloid leukemia is on record as 18%. Further, in the data set with FLT3 phosphorylation (based on the regression line of FIG. 1, 7 AML patients given 10 mg or 20 mg one time a day), the “in-plasma concentration at which the phosphorylation inhibition rate reaches 100%” value is given as “exceeds 30 ng/mL”. In the data set with FLT3 phosphorylation (concluded from PIA test results of FIG. 1), the “in-plasma concentration required to exhibit a remarkable FLT3 phosphorylation inhibition rate” value was no less than 40 ng/mL. The IC50 was in the range of 0.1 to 0.5 nM in data set [1], 0.5 to 1 nM in data set [2] and 0.5 to 1 nM in data set [3]. Besides, the “inhibitory effect on proliferation, in words” value in data set [2] (FLT3-ITD+N676T-expressing 32D cell) was “strong inhibitory effect”; in data set [3] (FLT3-ITD+D698N-expressing 32D cell, compared with FLT3-ITD-expressing 32D cell) it was “strong inhibitory effect”. The serious side effects entry in data set [4] is on record as “No serious side effects were observed”.

In the case of `CCc1nc(C(N)=O)c(Nc2ccc(N3CCC(N4CCN(C)CC4)CC3)c(OC)c2)nc1NC1CCOCC1` [Gilteritinib, 6-ethyl-3-[3-methoxy-4-[4-(4-methylpiperazin-1-yl)piperidin-1-yl]anilino]-5-(oxan-4-ylamino) pyrazine-2-carboxamide, reference compound], the IC50 fell in the range of 1 to 5 nM in data set [1], 5 to 10 nM in data set [2] and 10 to 50 nM in data set [3].
